Reference: patent US10941152B2, “Pyrazole compounds as modulators of FSHR and uses thereof” (TOCOPHERX, INC., priority 2014, dated 2021)

Columns and labels:
FSHR = target: T1, FSHR (Homo sapiens, UniProt P23945); assay: EC50 of cyclic AMP production in CHO FSHR cells + EC20 FSH (Assay A); assay type: cell-based; conditions: cyclic AMP production in CHO FSHR cells + EC20 FSH (0.265 pM), HTRF
T1 construct: expressed in transfected cells; host or cells: CHO (Cho-FSHR-LUC-1-1-43)
T1 sequence (P23945 18-695): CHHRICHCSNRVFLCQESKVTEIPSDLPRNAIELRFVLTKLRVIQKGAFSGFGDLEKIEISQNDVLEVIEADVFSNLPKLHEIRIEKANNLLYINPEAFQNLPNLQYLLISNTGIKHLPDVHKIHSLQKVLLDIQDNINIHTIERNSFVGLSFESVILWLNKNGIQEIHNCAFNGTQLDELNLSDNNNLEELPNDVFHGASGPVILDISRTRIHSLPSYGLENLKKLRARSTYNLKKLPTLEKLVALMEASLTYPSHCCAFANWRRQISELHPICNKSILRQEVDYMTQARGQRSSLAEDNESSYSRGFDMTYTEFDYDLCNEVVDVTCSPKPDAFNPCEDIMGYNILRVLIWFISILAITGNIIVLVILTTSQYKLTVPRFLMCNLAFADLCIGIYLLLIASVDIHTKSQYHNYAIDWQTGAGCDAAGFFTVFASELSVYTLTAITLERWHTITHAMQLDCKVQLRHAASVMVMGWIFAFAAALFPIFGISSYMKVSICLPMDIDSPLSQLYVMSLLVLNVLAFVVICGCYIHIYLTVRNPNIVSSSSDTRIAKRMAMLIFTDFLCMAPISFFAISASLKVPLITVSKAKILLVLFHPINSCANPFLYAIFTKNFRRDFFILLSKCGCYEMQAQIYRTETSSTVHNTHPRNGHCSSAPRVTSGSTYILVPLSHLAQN
In short: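 cAMP was detected by HTRF as the 665/620 nm ratio. The CHO-FSHR cells had first been exposed for 1 h at 37° C to test compound together with 0.265 pM FSH (EC20) and 200 μM IBMX. Responses are given as percent of the FSH standard maximum.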

[1] = target: T2, follicle-stimulating hormone (FSH) receptor (Rattus norvegicus, UniProt P20395); assay: Rat granulosa EC50 FSH (Assay B); assay type: cell-based
T2 construct: endogenous in cells; host or cells: rat granulosa cells
T2 sequence (P20395 18-692): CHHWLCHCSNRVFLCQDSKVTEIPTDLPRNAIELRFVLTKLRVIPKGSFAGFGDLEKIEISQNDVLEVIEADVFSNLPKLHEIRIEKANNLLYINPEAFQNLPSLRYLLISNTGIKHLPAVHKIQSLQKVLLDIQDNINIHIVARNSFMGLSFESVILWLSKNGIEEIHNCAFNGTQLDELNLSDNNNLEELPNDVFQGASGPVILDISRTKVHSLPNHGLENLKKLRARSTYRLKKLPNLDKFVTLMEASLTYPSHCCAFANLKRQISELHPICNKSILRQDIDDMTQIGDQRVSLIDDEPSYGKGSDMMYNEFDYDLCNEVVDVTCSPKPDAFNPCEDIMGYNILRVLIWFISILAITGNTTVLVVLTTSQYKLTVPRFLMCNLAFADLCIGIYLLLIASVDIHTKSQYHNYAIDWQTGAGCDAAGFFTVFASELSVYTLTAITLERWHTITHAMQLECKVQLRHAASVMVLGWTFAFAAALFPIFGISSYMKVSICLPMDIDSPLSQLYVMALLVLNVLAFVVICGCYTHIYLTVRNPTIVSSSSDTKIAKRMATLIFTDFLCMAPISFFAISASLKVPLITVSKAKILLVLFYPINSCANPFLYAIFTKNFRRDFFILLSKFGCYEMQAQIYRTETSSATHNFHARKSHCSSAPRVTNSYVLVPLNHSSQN
Experimental: Example 25. Rat granulosa EC50 FSH (Assay B)
The assay was performed pursuant to the teaching of Yanofsky et al. (2006) Allosteric activation of the follicle-stimulating hormone (FSH) receptor by selective, nonpeptide agonists (JBC 281(19): 13226-13233, which is incorporated by reference in the disclosure of the invention).

SMILES | EC50 (FSHR) [nM] | EC50 [1] [nM]
COc1cc2c(cc1-c1c(C)nn(CC(N)=O)c1C)-c1c(c(C(=O)N(C)C(C)(C)C)nn1-c1cc(Cl)cc(Cl)c1)CO2 [Compound 139, 8-(1-(2-amino-2-oxoethyl)-3,5-dimethyl-1H-pyrazol-4-yl)-N-tert-butyl-1-(3,5-dichlorophenyl)-7-methoxy-N-methyl-1,4-dihydrochromeno[4,3-c]pyrazole-3-carboxamide] | < 10 | 10 to 100
CNC(=O)Cn1nc(C)c(-c2cc3c(cc2OC)OCc2c(C(=O)N(C)C(C)(C)C)nn(-c4cc(Cl)cc(Cl)c4)c2-3)c1C [Compound 140] | < 10 | 101 to 500
COc1cc2c(cc1C1C=NN=C1C)-c1c(c(C(=O)N(C)C(C)(C)C)nn1-c1cc(Cl)cc(Cl)c1)CO2 (stereo not drawn) [Compound 141] | < 10 | 10 to 100
COc1cc2c(cc1-c1cn(CC(N)=O)nc1C)-c1c(c(C(=O)N(C)C(C)(C)C)nn1-c1cc(Cl)cc(Cl)c1)CO2 [Compound 142] | < 10 | 10 to 100
COc1cc(OC)cc(-n2nc(C(=O)N(C)C(C)(C)C)c3c2-c2cc(-c4nn(C)cc4Br)c(OC)cc2OC3)c1 [Compound 145, 8-(4-bromo-1-methyl-1H-pyrazol-3-yl)-N-tert-butyl-1-(3,5-dimethoxyphenyl)-7-methoxy-N-methyl-1,4-dihydrochromeno[4,3-c]pyrazole-3-carboxamide] | < 10 | 101 to 500
COc1cc(OC)cc(-n2nc(C(=O)N(C)C(C)(C)C)c3c2-c2cc(-c4nn(C)cc4C#N)c(OC)cc2OC3)c1 [Compound 146, N-tert-butyl-8-(4-cyano-1-methyl-1H-pyrazol-3-yl)-1-(3,5-dimethoxyphenyl)-7-methoxy-N-methyl-1,4-dihydrochromeno[4,3-c]pyrazole-3-carboxamide] | < 10 | 101 to 500
COc1cc2c(cc1-c1nn(C)cc1Br)-c1c(c(C(=O)N(C)C(C)(C)C)nn1-c1cc(Cl)cc(Cl)c1)CO2 [Compound 148] | < 10 | 10 to 100
COc1cc2c(cc1-c1nn(C)cc1C#N)-c1c(c(C(=O)N(C)C(C)(C)C)nn1-c1cc(F)cc(F)c1)CO2 [Compound 149] | < 10 | 10 to 100
COc1cc2c(cc1-c1nn(C)cc1C#N)-c1c(c(C(=O)N3CCOCC3(C)C)nn1-c1cc(F)cc(F)c1)CO2 [Compound 150] | < 10 | 10 to 100
COc1cc2c(cc1-c1nn(C)cc1Cl)-c1c(c(C(=O)N3CCOCC3(C)C)nn1-c1cc(F)cc(F)c1)CO2 [Compound 151] | < 10 | 10 to 100
COc1cc2c(cc1-c1cnccc1C(N)=O)-c1c(c(C(=O)N(C)C(C)(C)C)nn1-c1cc(Cl)cc(Cl)c1)CO2 [Compound 153] | < 10 | 10 to 100
COc1cc(Cl)cc(-n2nc(C(=O)N(C)C(C)(C)C)c3c2-c2cc(-c4cncc(C(N)=O)c4)c(OC)cc2OC3)c1 [Compound 156] | < 10 | 10 to 100
COc1cc(Cl)cc(-n2nc(C(=O)N3CCOCC3(C)C)c3c2-c2cc(-c4cncc(C(N)=O)c4)c(OC)cc2OC3)c1 [Compound 157] | < 10 | < 10
[2H]C([2H])([2H])Oc1cc(Cl)cc(-n2nc(C(=O)N(C)C(C)(C)C)c3c2-c2cc(-c4cncc(C(N)=O)c4)c(OC([2H])([2H])[2H])cc2OC3)c1 [Compound 158] | < 10 | 10 to 100
COc1cc(OC)cc(-n2nc(C(=O)N3CCOCC3(C)C)c3c2-c2cc(-c4cncc(C(N)=O)c4)c(OC)cc2OC3)c1 [Compound 159] | < 10 | 10 to 100
COc1cc(OC)cc(-n2nc(C(=O)N(C)C(C)(C)C)c3c2-c2cc(-c4cncc(C(N)=O)c4)c(OC)cc2OC3)c1 [Compound 160] | < 10 | 10 to 100
COc1cc2c(cc1-c1cncc(C(N)=O)c1)-c1c(c(C(=O)N(C)C(C)(C)C)nn1-c1cc(F)cc(F)c1)CO2 [Compound 161] | < 10 | 10 to 100

SMILES | EC50 (FSHR) [nM] | EC50 [1] [nM]
COc1cc2c(cc1-c1cncc(C(N)=O)c1)-c1c(c(C(=O)N3CCC(O)CC3(C)C)nn1-c1cc(F)cc(F)c1)CO2 (stereo not drawn) [Compound 162] | < 10 | 101 to 500
COc1cc2c(cc1-c1cncc(C(N)=O)c1)-c1c(c(C(=O)N3CC[S+]([O-])CC3(C)C)nn1-c1cc(F)cc(F)c1)CO2 (stereo not drawn) [Compound 163] | < 10 | 101 to 500
COc1cc2c(cc1-c1cncc(C(N)=O)c1)-c1c(c(C(=O)N3CCOCC3(C)C)nn1-c1cc(F)cc(F)c1)CO2 [Compound 164] | < 10 | < 10
COc1cc2c(cc1-c1cc(Cl)cc(C(N)=O)c1)-c1c(c(C(=O)N(C)C(C)(C)C)nn1-c1cc(F)cc(F)c1)CO2 [Compound 165] | < 10 | 10 to 100
COc1cc(F)cc(-n2nc(C(=O)N(C)C(C)(C)C)c3c2-c2cc(-c4cncc(C(N)=O)c4)c(OC)cc2OC3)c1 [Compound 166] | < 10 | 101 to 500
COc1cc2c(cc1-c1cncc(C(N)=O)c1)-c1c(c(C(=O)N(C)C(C)(C)C)nn1-c1ccsc1)CO2 [Compound 167] | < 10 | 10 to 100
COc1cc2c(cc1-c1cncc(C(N)=O)c1)-c1c(c(C(=O)N(C)C(C)(C)C)nn1-c1ccccn1)CO2 [Compound 168] | < 10 | 101 to 500
COc1cc2c(cc1-c1cncc(C(N)=O)c1)-c1c(c(C(=O)N3CCOCC3(C)C)nn1-c1cc(Cl)cc(Cl)c1)CO2 [Compound 169] | < 10 | 101 to 500
COc1cc2c(cc1-c1cnc(C)c(C(N)=O)c1)-c1c(c(C(=O)N(C)C(C)(C)C)nn1-c1cc(Cl)cc(Cl)c1)CO2 [Compound 170] | < 10 | 101 to 500
COc1cc2c(cc1-c1cncc(C(N)=O)c1)-c1c(c(C(=O)N(C)C(C)(C)C)nn1-c1cc(Cl)cc(Cl)c1)CO2 [Compound 171] | < 10 | < 10
COc1cc2c(cc1-c1cccc(C(N)=O)c1)-c1c(c(C(=O)N(C)C(C)(C)C)nn1-c1cc(Cl)cc(Cl)c1)CO2 [Compound 172] | < 10 | 10 to 100
COc1cc2c(cc1-c1cncc(C(N)=O)c1)-c1c(c(C(=O)N(C)C(C)(C)C)nn1-c1cc(C)cc(F)c1)CO2 [Compound 173] | < 10 | 10 to 100
COc1cc2c(cc1-c1cc(C(N)=O)c[n+]([O-])c1)-c1c(c(C(=O)N3CCOCC3(C)C)nn1-c1cc(Cl)cc(Cl)c1)CO2 [Compound 174, 3-carbamoyl-5-(1-(3,5-dichlorophenyl)-3-(3,3-dimethylmorpholine-4-carbonyl)-7-methoxy-1,4-dihydrochromeno[4,3-c]pyrazol-8-yl)pyridine 1-oxide] | < 10 | 10 to 100
COc1cc(OC)cc(-n2nc(C(=O)N(C)C(C)(C)C)c3c2-c2cc(-c4cc(C(N)=O)c[n+]([O-])c4)c(OC)cc2OC3)c1 [Compound 175] | < 10 | 10 to 100
COc1cc2c(cc1-c1cc(C(N)=O)c[n+]([O-])c1)-c1c(c(C(=O)N3CCOCC3(C)C)nn1-c1cc(F)cc(F)c1)CO2 [Compound 176] | < 10 | 10 to 100
COc1cc2c(cc1-c1cc(C#N)c[n+]([O-])c1)-c1c(c(C(=O)N3CCOCC3(C)C)nn1-c1cc(Cl)cc(Cl)c1)CO2 [Compound 177] | < 10 | 10 to 100
